We go through two compounds from patent publication US20240342195A1, “AGENT FOR COMBINATION USE COMPRISING T CELL AND/OR B CELL ACTIVITY REGULATOR” (TOKAI UNIVERSITY EDUCATIONAL SYSTEM, priority 2021, published 2024).

Experiment [1] deals with BeWo. Put plainly: proliferating ability of cell line cultured with P4 or COR. It counts as cell-based, human. To be noted: 200 μM or less, cultured 10 days. As to the method:
(§1) Each of human choriocarcinoma cell line JEG-3, BeWo, and embryonic kidney cell line HEK293 was cultured for 10 days at 37° C. in 5% CO2 in a 10% Fetal Calf Serum (FCS)-containing DMEM (Gibuco) to which water-soluble progesterone (P4; water soluble) (Sigma) or cortisol (COR) (Sigma) was added in various concentrations. Each of mouse myeloma cell line P3-X63-Ag8-U1 (P3X) and mouse lymphoma cell line A20 was cultured for 3 days at 37° C. in 5% CO2 in 10% FCS-containing RPMI 1640 to which P4 or COR was added in various concentrations. Proliferation of the cells was evaluated by measuring the number of the cells.

The test system of experiment [2] is HEK293. Described as above. It counts as cell-based, human. To be noted: 200 μM or less, cultured 10 days. The method, then: as §1
For experiment [3], the system named is JEG-3. Described as above. Type of experiment: cell-based, human. To be noted: 200 μM or less, cultured 10 days. The method, then:
as §1

For experiment [4], the system named is A20. The experiment is described as above. To be noted: 2 μM or less, cultured 3 days. Type of experiment: cell-based, mouse. As to the method: as §1
For experiment [5], the system named is P3-X63-Ag8-U1 (P3X). The experiment is described as above. Type of experiment: cell-based, mouse. To be noted: 2 μM or less, cultured 3 days. The method, then:
as §1

Experiment [6] has as its system Human peripheral blood mononuclear cells (PBMCs). Put plainly: number of cells of TSST-1-stimulated PBMCs cultured with P4 or COR. To be noted: PBMCs + TSST-1; 3 days. It counts as cell-based. As to the method: (§2) The PBMCs (final concentration: 1×10^6/mL) were cultured for 3 days at 37° C. in 5% CO2 in 10% FCS-containing RPMI 1640 to which P4 or COR was added in various concentrations with stimulation by 1 μg/mL of toxic shock syndrome toxin-1 (TSST-1). These cells were collected, washed with PBS, and dispensed into a Fisher tube in an amount of 1×10^6 cells/tube. For analysis of a human cell surface marker, a fluorescent-labeled anti-human monoclonal antibody (mAbs) was used. The cells were stained with the mAbs, a reaction was performed for 15 minutes at 4° C., and the resultant was washed with PBS containing 1% (w/v) BSA. Then, the resultant was analyzed by FACS Fortessa, or FACS Verse (BD Bioscience, Franklin Lakes, NJ). In the analysis, a leukocyte gated or lymphocyte gated cells were further gated by expression of human CD45, and then the analysis was performed. A culture supernatant was collected, and 25 μL thereof was dispensed to quantitatively determine cytokine with Legend Plex™ kit from BioLegend.

In experiment [7] the test system is CD4 and CD8 T cells in PBMCs. The experiment can be described thus: FCM analysis of activation/exhaustion markers (CD25, PD-1) on T cells of TSST-1-stimulated PBMCs. To be noted: 20 to 200 μM. Type of experiment: cell-based, human. As to the method: as §2
Experiment [8] concerns B cell in PBMCs. Put plainly: FCM analysis of PD-1 on B cells of TSST-1-stimulated PBMCs. To be noted: TSST-1 and P4/COR stimulation; data not shown. Type of experiment: cell-based, human. The method, then:
as §2

Experiment [9] relates to CD4 and CD8 T cells in PBMCs. The experiment can be described thus: restimulation experiment (transient vs continuous P4/COR), PD-1/PD-L1 on T cells. Type of experiment: cell-based, human. To be noted: TSST-1 3 days. As to the method: (§3) In a restimulation experiment, PBMCs were cultured for 6 hours at 37° C. in 5% CO2 in 10% FCS-containing RPMI 1640 to which 200 μM P4 or COR was added. These cells were washed, adjusted to a final concentration of 1×10^6/mL, and cultured again in the presence or absence of 200 μM P4 or COR with stimulation by 1 μM TSST-1. After 72 hours, the resultant cells were collected to be analyzed by FCM.

Experiment [10] concerns B cell in PBMCs. The experiment can be described thus: restimulation experiment (transient vs continuous P4/COR), PD-L1 on B cells. To be noted: addition of 200 μM; TSST-1 3 days. Type of experiment: cell-based, human. As to the method: as §3
The test system of experiment [11] is Hu-PBMC-NOG (GVHD onset model). The experiment can be described thus: GVHD onset model: human PBMCs transplanted to NOG mouse, P4 or COR administered subcutaneously. Type of experiment: in vivo. To be noted: 2 mg/head subcutaneously twice a week, 4 weeks. As to the method:
In the analysis using the GVHD model, PBMCs prepared in the same manner as described above were washed with PBS, and 2.5×10^6 PBMCs were intravenously transplanted to each 8- to 9-week-old NOG mouse. […] At the same time as the administration, the weight was measured. After 4 weeks, the mouse was anesthetized to collect heart blood, and euthanized. From various lymphoid organs excised, human cells were prepared, hemolyzed, and then subjected to FCM. Besides, the lung and the liver were excised, and immunohistochemically stained as follows. A tissue of the mouse was immobilized with 20% formalin (Wako Pure Chemical Industries, Ltd.), and embedded in paraffin. The obtained paraffin block was sliced, and the resultant was subjected to deparaffinization, mounted on a slide glass, and stained with hematoxylin and eosin (HE). In immunohistochemical staining with an anti-human CD45 antibody, the slide was subjected to a heat treatment at 97° C. for 20 minutes, and subjected to an endogenous peroxidase treatment through a reaction with 0.3% H2O2/MetOH at room temperature for 10 minutes. Thereafter, the resultant was blocked with 1% goat serum, and anti-human CD45 (Dako) was added thereto, followed by a reaction overnight at 4° C. The resultant slide was washed 3 times with 0.01 M PBS for 5 minutes, and colored with a DAB solution. The resultant was washed with running water for 3 minutes, and stained with hematoxylin, followed by dehydration and penetration/encapsulation.

For experiment [12], the system named is PBMC-NOG-hIL-4-Tg mouse. Put plainly: transplantation of P4/COR-cultured PBMCs to NOG-hIL-4-Tg mouse immunized with CH401MAP. Type of experiment: in vivo. To be noted: PBMCs cultured with 200 μM for 6 hours before transplantation.
Experiment [13] relates to B cell (CD19 gated) in human PBMCs. The experiment can be described thus: atezolizumab addition experiment, PD-L1/PD-1 expression on B cell by FCM. It counts as cell-based. To be noted: 3 days. The method, then:
(§4) As for an experiment of atezolizumab addition, 0 to 200 μM P4 or COR, 1 μM TSST-1, and 100 μg/mL atezolizumab were added to PBMCs, and the resultant was cultured for 72 hours at 37° C. in 5% CO2, followed by analysis by FCM.

The subject of experiment [14] is T cell (CD3 gated) in human PBMCs. The experiment can be described thus: atezolizumab addition experiment, PD-L1/PD-1 expression on T cell by FCM. Type of experiment: cell-based. To be noted: 3 days. As to the method: as §4
Experiment [15] relates to humanized mouse. The experiment can be described thus: PD-L1/PD-1 expression in humanized mouse in vivo after atezolizumab administration. To be noted: data not shown.
In experiment [16] the test system is human breast cancer cell line MDA-MB-231. Put plainly: cancer-bearing CMV-NOG-hIL-4-Tg mouse with MDA-MB-231 and human PBMCs transplanted. It counts as in vivo. The method, then:
5×10^6 MDA-MB231 was subcutaneously administered to a ventral portion of a 6- to 7-week-old NOG-hIL-4-Tg mouse (a hIL-4 concentration in blood of 100 pg/mL or more). Diameters of the tumor along the ventral and in a direction at a right angle to the ventral were measured with a caliper every 2 days from one week after the administration, and the product thereof was defined as the size of the tumor. Two weeks after the tumor transplantation, 5×10^6 PBMCs were intravenously transplanted to the cancer-bearing mice and non-cancer-bearing mice as a control group. The measurement of the tumor diameters was similarly continued after the PBMC transplantation. The non-cancer bearing mice were divided into two groups, and PBS or atezolizumab ([…], 3 times (every 10 days)) was administered to each group. The cancer-bearing mice were divided into three groups, and PBS, atezolizumab ([…], 3 times (every 10 days)), or liposome (amount equivalent to 225 μg of atezolizumab and 40 μg of P4/dose, 6 times (every 5 days)) was administered to each group.
After 4 weeks, the mice were anesthetized to collect heparinized blood, and were euthanized. From various lymph tissues collected, cells were collected, and erythrocytes were removed therefrom with a hemolysis buffer to prepare a cell suspension. The number of cells therein was counted, and a human leukocyte fraction was subjected to flowcytometry (FCM) analysis. A tumor tissue was used for immunohistochemical staining.
For human immunocytochemistry, the same antibodies as those used in Example 1 were used. Cells were reacted with an appropriate amount of each of various, fluorescent-labeled antibodies for 15 minutes at 4° C., and washed with PBS containing 1% BSA. The resultant cells were analyzed with FACS Fortessa or Verse (manufactured by BD Bioscience). Living cells were gated, and human CD45-positive cells were further gated to obtain a human leukocyte fraction. These cells were further divided with a cell surface marker to obtain lymphocyte subsets. For data analysis, FlowJo (BD) was used.
A tissue of the mouse was immobilized with 20% formalin (manufactured by Wako Pure Chemical Industries, Ltd.), and embedded in paraffin. The resultant paraffin block was sliced, and the resultant was subjected to deparaffinization, mounted on a slide glass, and stained with hematoxylin and eosin (HE). In immunohistochemical staining with an anti-human CD8 antibody, the slide was subjected to a heat treatment at 120° C. for 20 minutes, and subjected to an endogenous peroxidase treatment through a reaction with 0.3% H2O2/MetOH at room temperature for 10 minutes. Thereafter, the resultant was blocked with 1% goat serum, and anti-human CD8 (manufactured by Dako) was added thereto, followed by a reaction at 25° C. for 60 minutes. The resultant slide was washed 3 times with 0.01 M PBS for 5 minutes, followed by a reaction at 25° C. for 60 minutes with simple stain MAX-PO (manufactured by Nichirei Biosciences Inc.). The resultant slide was washed 3 times with 0.01 M PBS for 5 minutes, and colored with a DAB solution. The resultant was washed with running water for 3 minutes, and stained with hematoxylin, followed by dehydration and penetration/encapsulation.

The mark [17] stands for this setting: atezolizumab 450 pg/head/dose 3 times, liposome equivalent to 225 μg atezolizumab and 40 μg P4/dose 6 times, 4 weeks.

As to `C[C@]12CCC(=O)C=C1CC[C@@H]1[C@@H]2[C@@H](O)C[C@@]2(C)[C@H]1CC[C@]2(O)C(=O)CO` [COR, cortisol], the cell proliferating ability result in [1], in experiment [2] and in experiment [3] was “minimally changed” throughout. Also, the proliferation result in experiment [4] and in experiment [5] was “almost completely suppressed” throughout. The “number of cells vs control group” value in experiment [6] was “substantially no difference”. The “PD-1 expression on T cells” value in experiment [7] (day 3) is listed as “not suppressed depending on the COR concentration”. In addition, the “activation marker-negative (non-activated) T cells” value in experiment [7] (day 3) is “not largely increased”. Further, the “number of activated cells” value in [7] (day 3, data not shown) is recorded as “reduced”. Further, the “ratio of later-phase activated (CD25-positive PD-1-positive) T cells” value in experiment [7] (CD4 and CD8 T cells, day 3) is recorded as “did not depend on the COR concentration”. Besides, the “PD-1 expression on B cell” value in [8] is given as “not increased”. The “ratio of later-phase activated (PD-1/PD-L1-positive) cells” value in experiment [9] (CD4 and CD8 T cells, continuously added, 200 μM) was “not suppressed as much as that obtained by P4 addition”. In experiment [9] (transiently added (200 μM 6 hours, washed)), the “CD8 T cell activation vs control group” value was “significantly suppressed”. In experiment [10], the “PD-L1 expression in B cell” value is reported as “tended to reduce PD-L1 expression”. Also, the GVHD symptoms entry in experiment [11] was “reduced GVHD symptoms”. In addition, the lymphocyte engraftment entry in experiment [11] is recorded as “lymphocyte engraftment failure was also caused”. Further, in experiment [11], the lymphocytes result is “reduced lymphocytes”. In experiment [12] (analysis after 4 weeks), the “engraftment ability of transplanted PBMCs” value is listed as “low engraftment ability”. Moreover, the “specific antibody production (CH401MAP)” value in experiment [12] (plasma after 4 weeks) is “suppressed”. For the same compound, the “PD-L1 expression in a B cell” value in experiment [13] (0 to 200 μM, TSST-1) is reported as “showed PD-L1 expression”.

Consider atezolizumab, for which, in [14], the “PD-1 expression in a T cell” value is given as “increased” and the “PD-L1 expression in a T cell” value is recorded as “reduced”. Besides, in experiment [13], the “PD-1 expression in a B cell” value was “increased”. In [15], the PD-1 expression result is reported as “tended to be increased” and the PD-L1 expression result is recorded as “tended to be reduced”. In [16] (setting [17]), the “engraftment of a B cell (CD19-positive) in spleen cells” value is “reduced”, the “ratio of a T cell (CD3-positive) in spleen cells” value was “increased” and the “ratio of the CD8-positive killer T cell in spleen cells” value is listed as “increased”. The “increase of the tumor (tumor diameter)” value in experiment [16] (compared with PBS administration group) was “suppressed”. Further, the “human (killer) T cell infiltration into the tumor mass” value in [16] (histochemical staining (anti-human CD8), liposome compared with atezolizumab alone) was “obviously observed”.
